Holding throughout (assay type): cell-based
The target in experiment [1] is T1, GLP-1R (Homo sapiens, UniProt P43220). Put plainly: HitHunter cAMP assay (GLP-1R). The note with it: cAMP; for Emax: read-out: (Emax) GLP-1R. The method in brief: (§1)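 Suspension cells (10,000/well) in HBSS with 10 mM HEPES, 625 μM IBMX, 0.2% BSA exposed to 22-point 2-fold agonist series in duplicate for 30 min at room temperature. cAMP measured by antibody immunocompetition with overnight development, luminescence read-out.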
(cAMP levels reflect the balance of adenylyl cyclase and phosphodiesterase activity.)

Experiment [2] concerns the target T2, GIP-R (Homo sapiens, UniProt P48546).
T2 sequence (P48546 22-466): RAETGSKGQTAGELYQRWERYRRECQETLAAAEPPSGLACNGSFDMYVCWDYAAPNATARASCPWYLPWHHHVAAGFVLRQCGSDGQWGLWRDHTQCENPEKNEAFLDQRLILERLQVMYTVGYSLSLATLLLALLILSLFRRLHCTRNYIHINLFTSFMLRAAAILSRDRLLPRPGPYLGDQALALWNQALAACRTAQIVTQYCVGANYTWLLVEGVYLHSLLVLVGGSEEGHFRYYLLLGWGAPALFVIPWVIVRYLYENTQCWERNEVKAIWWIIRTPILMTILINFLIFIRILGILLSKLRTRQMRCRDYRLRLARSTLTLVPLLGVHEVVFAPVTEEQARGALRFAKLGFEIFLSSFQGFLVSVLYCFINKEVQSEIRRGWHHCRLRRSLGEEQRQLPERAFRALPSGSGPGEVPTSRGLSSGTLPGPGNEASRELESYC
Put plainly: HitHunter cAMP assay (GIP-R). The note with it: cAMP; for Emax: read-out: (Emax) GIP-R. The gist of the method: as §1

The target in experiment [3] is T1, GLP-1R. As to the kind of experiment: PathHunter β-arrestin assay. The gist of the method: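 Cells (5,000/well) plated overnight, then exposed to a 22-point 2-fold agonist dilution series in medium with 0.2% BSA for 90 min at 37 °C, 5% CO2. PathHunter detection reagent added; after 3 h at room temperature in the dark, luminescence read.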
[4] abbreviates: Table 3, read-out: EC50 GLP-1R/nM.
Setting [5] is: Table 3A, read-out: EC50 GLP-1R/nM.
Setting [6] is: Table 3, read-out: EC50 GIP-R/nM.
Where [7] appears, read: Table 3A, read-out: EC50 GIP-R/nM.
Where [8] appears, read: PathHunter β-arrestin assay, read-out: β-arrestin activity EC50.

The record followed here is patent US20260176320A1, “MODULATORS OF G-PROTEIN COUPLED RECEPTORS” (priority 2018, published 2026).

Read-outs that look alike come from different tables or passages of the source.

T1 sequence (P43220 24-463): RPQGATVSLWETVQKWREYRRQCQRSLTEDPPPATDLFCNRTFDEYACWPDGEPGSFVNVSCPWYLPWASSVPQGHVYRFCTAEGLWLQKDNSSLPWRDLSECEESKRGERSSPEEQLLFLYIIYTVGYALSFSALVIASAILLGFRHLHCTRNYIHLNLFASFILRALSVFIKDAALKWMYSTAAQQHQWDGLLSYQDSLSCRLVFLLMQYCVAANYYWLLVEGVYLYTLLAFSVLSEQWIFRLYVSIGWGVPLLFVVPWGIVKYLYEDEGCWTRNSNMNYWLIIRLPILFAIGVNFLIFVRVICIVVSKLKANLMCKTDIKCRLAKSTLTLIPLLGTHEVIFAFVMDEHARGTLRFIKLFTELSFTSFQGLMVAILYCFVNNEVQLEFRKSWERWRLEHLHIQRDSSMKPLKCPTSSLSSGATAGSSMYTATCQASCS

For orientation: Emax means the size of the effect at its maximum, as opposed to the concentration needed. Take `CCCCCCCCCCCCCCCC(=O)N[C@@H](CCC(=O)NCCCC[C@H](NC(=O)[C@H](CO)NC(=O)[C@@H]1CCCN1C(=O)[C@@H]1CCCN1C(=O)[C@@H]1CCCN1C(=O)[C@H](C)NC(=O)CNC(=O)[C@H](CO)NC(=O)[C@H](CO)NC(=O)[C@@H]1CCCN1C(=O)CNC(=O)CNC(=O)[C@H](C)NC(=O)[C@H](CC(C)C)NC(=O)[C@H](CC(C)C)NC(=O)[C@H](Cc1c[nH]c2ccccc12)NC(=O)[C@H](CC(N)=O)NC(=O)[C@@H](NC(=O)[C@H](Cc1ccccc1)NC(=O)[C@H](CCC(=O)O)NC(=O)C(C)(C)NC(=O)[C@H](C)NC(=O)[C@H](C)NC(=O)[C@H](CCC(N)=O)NC(=O)[C@H](CCCCN)NC(=O)[C@H](CC(=O)O)NC(=O)[C@H](CC(C)C)NC(=O)[C@H](Cc1ccc(O)cc1)NC(=O)[C@@H](NC(=O)[C@H](CO)NC(=O)[C@H](Cc1ccc(O)cc1)NC(=O)[C@H](CC(=O)O)NC(=O)[C@H](CO)NC(=O)[C@@H](NC(=O)[C@H](Cc1ccccc1)NC(=O)[C@@H](NC(=O)CNC(=O)[C@H](CCC(=O)O)NC(=O)CSCC(=O)NCCN1CC(=O)NCC1=O)[C@@H](C)O)[C@@H](C)O)[C@@H](C)CC)C(C)C)C(N)=O)C(=O)O` [Compound 25]: the Emax was 86% in experiment [1] (Table 3), 86% in experiment [1] (Table 3A), 43% in experiment [2] (Table 3) and 43% in experiment [2] (Table 3A). The EC50 was 1 to 10 nM in experiment [1] (setting [4]); 1 to 10 nM in experiment [1] (setting [5]); 1 to 10 nM in experiment [2] (setting [6]); 1 to 10 nM in experiment [2] (setting [7]); above 1000 nM in experiment [3] (setting [8]).

With `CCCCCCCCCCCCCCCC(=O)N[C@@H](CCC(=O)NCCCC[C@H](NC(=O)[C@H](CO)NC(=O)[C@@H]1CCCN1C(=O)[C@@H]1CCCN1C(=O)[C@@H]1CCCN1C(=O)[C@H](C)NC(=O)CNC(=O)[C@H](CO)NC(=O)[C@H](CO)NC(=O)[C@@H]1CCCN1C(=O)CNC(=O)CNC(=O)[C@H](C)NC(=O)[C@H](CC(C)C)NC(=O)[C@H](CC(C)C)NC(=O)[C@H](Cc1c[nH]c2ccccc12)NC(=O)[C@H](CC(N)=O)NC(=O)[C@@H](NC(=O)[C@H](Cc1ccccc1)NC(=O)[C@H](CCC(=O)O)NC(=O)C(C)(C)NC(=O)[C@H](C)NC(=O)[C@H](C)NC(=O)[C@H](CCC(N)=O)NC(=O)[C@H](CCCCN)NC(=O)[C@H](CC(=O)O)NC(=O)[C@H](CC(C)C)NC(=O)[C@H](Cc1ccc(O)cc1)NC(=O)[C@@H](NC(=O)[C@H](CO)NC(=O)[C@H](Cc1ccc(O)cc1)NC(=O)[C@H](CC(=O)O)NC(=O)[C@H](CO)NC(=O)[C@@H](NC(=O)[C@H](Cc1ccccc1)NC(=O)[C@@H](NC(=O)CNC(=O)[C@H](CCC(=O)O)NC(=O)CCC(=O)NCCN1CCCCC1=O)[C@@H](C)O)[C@@H](C)O)[C@@H](C)CC)C(C)C)C(N)=O)C(=O)O` [Compound 26], the Emax in experiment [1] (Table 3) was 95%; in experiment [1] (Table 3A) it was 95%; in experiment [2] (Table 3), 64%; in experiment [2] (Table 3A), 64%. Also, the EC50 is 0.1 to 1 nM in experiment [1] (setting [4]); 0.1 to 1 nM in experiment [1] (setting [5]); 1 to 10 nM in experiment [2] (setting [6]); 1 to 10 nM in experiment [2] (setting [7]); above 1000 nM in experiment [3] (setting [8]).

With `CCCCCCCCCCCCCCCC(=O)N[C@@H](CCC(=O)NCCCC[C@H](NC(=O)[C@H](CO)NC(=O)[C@@H]1CCCN1C(=O)[C@@H]1CCCN1C(=O)[C@@H]1CCCN1C(=O)[C@H](C)NC(=O)CNC(=O)[C@H](CO)NC(=O)[C@H](CO)NC(=O)[C@@H]1CCCN1C(=O)CNC(=O)CNC(=O)[C@H](C)NC(=O)[C@H](CC(C)C)NC(=O)[C@H](CC(C)C)NC(=O)[C@H](Cc1c[nH]c2ccccc12)NC(=O)[C@H](CC(N)=O)NC(=O)[C@@H](NC(=O)[C@H](Cc1ccccc1)NC(=O)[C@H](CCC(=O)O)NC(=O)C(C)(C)NC(=O)[C@H](C)NC(=O)[C@H](C)NC(=O)[C@H](CCC(N)=O)NC(=O)[C@H](CCCCN)NC(=O)[C@H](CC(=O)O)NC(=O)[C@H](CC(C)C)NC(=O)[C@H](Cc1ccc(O)cc1)NC(=O)[C@@H](NC(=O)[C@H](CO)NC(=O)[C@H](Cc1ccc(O)cc1)NC(=O)[C@H](CC(=O)O)NC(=O)[C@H](CO)NC(=O)[C@@H](NC(=O)[C@H](Cc1ccccc1)NC(=O)[C@@H](NC(=O)CNC(=O)[C@H](CCC(=O)O)NC(=O)CCCC(=O)NCCN1CCCCC1=O)[C@@H](C)O)[C@@H](C)O)[C@@H](C)CC)C(C)C)C(N)=O)C(=O)O` [Compound 27], the Emax in experiment [1] (Table 3) came out at 95%; in experiment [1] (Table 3A) it was 95%; in experiment [2] (Table 3), 45%; in experiment [2] (Table 3A), 45%. Further, the EC50 was 0.1 to 1 nM in experiment [1] (setting [4]); 0.1 to 1 nM in experiment [1] (setting [5]); 1 to 10 nM in experiment [2] (setting [6]); 1 to 10 nM in experiment [2] (setting [7]); above 1000 nM in experiment [3] (setting [8]).

As to `CCCCCCCCCCCCCCCC(=O)N[C@@H](CCC(=O)NCCCC[C@H](NC(=O)[C@H](CO)NC(=O)[C@@H]1CCCN1C(=O)[C@@H]1CCCN1C(=O)[C@@H]1CCCN1C(=O)[C@H](C)NC(=O)CNC(=O)[C@H](CO)NC(=O)[C@H](CO)NC(=O)[C@@H]1CCCN1C(=O)CNC(=O)CNC(=O)[C@H](C)NC(=O)[C@H](CC(C)C)NC(=O)[C@H](CC(C)C)NC(=O)[C@H](Cc1c[nH]c2ccccc12)NC(=O)[C@H](CC(N)=O)NC(=O)[C@@H](NC(=O)[C@H](Cc1ccccc1)NC(=O)[C@H](CCC(=O)O)NC(=O)C(C)(C)NC(=O)[C@H](C)NC(=O)[C@H](C)NC(=O)[C@H](CCC(N)=O)NC(=O)[C@H](CCCCN)NC(=O)[C@H](CC(=O)O)NC(=O)[C@H](CC(C)C)NC(=O)[C@H](Cc1ccc(O)cc1)NC(=O)[C@@H](NC(=O)[C@H](CO)NC(=O)[C@H](Cc1ccc(O)cc1)NC(=O)[C@H](CC(=O)O)NC(=O)[C@H](CO)NC(=O)[C@@H](NC(=O)[C@H](Cc1ccccc1)NC(=O)[C@@H](NC(=O)CNC(=O)[C@H](CCC(=O)O)NC(=O)CSCC(=O)NCCN1CCS(=O)(=O)CC1=O)[C@@H](C)O)[C@@H](C)O)[C@@H](C)CC)C(C)C)C(N)=O)C(=O)O` [Compound 29], the EC50 is 1 to 10 nM in experiment [1] (EC50 GLP-1R/nM, Table 3); 1 to 10 nM in experiment [1] (EC50 GLP-1R/nM, Table 3A); 1 to 10 nM in experiment [2] (EC50 GIP-R/nM, Table 3); 100 to 1000 nM in experiment [2] (EC50 GIP-R/nM, Table 3A); above 1000 nM in experiment [3]. In addition, the Emax in experiment [1] (Table 3) turned out to be 98%; in experiment [1] (Table 3A) it was 98%; in experiment [2] (Table 3), 11%; in experiment [2] (Table 3A) it was 11%.

Consider `CCCCCCCCCCCCCCCC(=O)N[C@@H](CCC(=O)NCCCC[C@H](NC(=O)[C@H](CO)NC(=O)[C@@H]1CCCN1C(=O)[C@@H]1CCCN1C(=O)[C@@H]1CCCN1C(=O)[C@H](C)NC(=O)CNC(=O)[C@H](CO)NC(=O)[C@H](CO)NC(=O)[C@@H]1CCCN1C(=O)CNC(=O)CNC(=O)[C@H](C)NC(=O)[C@H](CC(C)C)NC(=O)[C@H](CC(C)C)NC(=O)[C@H](Cc1c[nH]c2ccccc12)NC(=O)[C@H](CC(N)=O)NC(=O)[C@@H](NC(=O)[C@H](Cc1ccccc1)NC(=O)[C@H](CCC(=O)O)NC(=O)C(C)(C)NC(=O)[C@H](C)NC(=O)[C@H](C)NC(=O)[C@H](CCC(N)=O)NC(=O)[C@H](CCCCN)NC(=O)[C@H](CC(=O)O)NC(=O)[C@H](CC(C)C)NC(=O)[C@H](Cc1ccc(O)cc1)NC(=O)[C@@H](NC(=O)[C@H](CO)NC(=O)[C@H](Cc1ccc(O)cc1)NC(=O)[C@H](CC(=O)O)NC(=O)[C@H](CO)NC(=O)[C@@H](NC(=O)[C@H](Cc1ccccc1)NC(=O)[C@@H](NC(=O)CNC(=O)[C@H](CCC(=O)O)NC(=O)CSCC(=O)NCCN1CCN(C)C(=O)C1=O)[C@@H](C)O)[C@@H](C)O)[C@@H](C)CC)C(C)C)C(N)=O)C(=O)O` [Compound 30], for which the EC50 was 0.1 to 1 nM in experiment [1] (EC50 GLP-1R/nM, Table 3); 0.1 to 1 nM in experiment [1] (EC50 GLP-1R/nM, Table 3A); 1 to 10 nM in experiment [2] (EC50 GIP-R/nM, Table 3); 1 to 10 nM in experiment [2] (EC50 GIP-R/nM, Table 3A); above 1000 nM in experiment [3]. The Emax in experiment [1] (Table 3) is 97%; in experiment [1] (Table 3A), 97%; in experiment [2] (Table 3), 59%; in experiment [2] (Table 3A), 59%.
